Data on 59 compounds can be found in patent US8993585B2, “Cyclic amine substituted pyrimidinediamines as PKC inhibitors” (Rigel Pharmaceuticals, Inc., priority 2007, dated 2015).

pIC50: −log10 of the molar value.

This test deals with Human primary T cells. The experiment in a line: IL-2 ELISA, Human Primary T Cell, Anti-CD3+CD28+ (Example 3). Format: cell-based. The settings on record: anti-CD3+CD28 stimulation. The procedure:
Human primary T cell isolation and culture: Human primary T cells were prepared as follows. […] The cells at the serum:ficoll interface were recovered and washed twice with 5 volumes of PBS. […] The primary T-cells were then washed twice with PBS to remove the IL-2.
Primary T cell stimulation and IL2 ELISA: Human primary T cells (100,000 cells per well) were pre-incubated with or without test compound in Yssel's medium for 1 hr at 37° C. Cells were then stimulated by transferring them to round-bottom 96-well plates pre-coated with 1 ug/ml αCD3 and 5 μg/ml αCD28. For counter assay, cells were instead stimulated by adding 8× stock solutions of PMA and ionomycin in Yssels (for final concentrations of 0.5 ng/ml PMA and 0.1 uM ionomycin, both from Calbiochem).
(ELISA stands for enzyme-linked immunosorbent assay.)

As to `CCN1C(=O)COc2cc(Nc3ncc(C#N)c(NC4CC(C)(C)N(C)C(C)(C)C4)n3)ccc21` [II-71], the negative-log IC50 (pIC50) (in general, −log10 of the IC50, conventionally taken in molar units) (Homo sapiens, T-cell, 24 h) was 6.84.
Turning to `CN1C(C)(C)CC(Nc2nc(Nc3cccc(-n4cnnn4)c3)ncc2C#N)CC1(C)C` [Compound I-405], under “24 hours”, the negative-log IC50 (pIC50) was 6.62.
Same read-out and setting: for `CN1C(C)(C)CC(Nc2nc(Nc3ccc(N4CCC(F)(F)CC4)c(F)c3)ncc2F)CC1(C)C` [Compound I-51] the value was 6.00; for `CN1C(C)(C)CC(Nc2nc(Nc3ccc(N4CCNCC4)c(Cl)c3)ncc2[N+](=O)[O-])CC1(C)C` [Compound I-77], 5.59.
On to `COc1ccc(Nc2ncc(F)c(NC3CC(C)(C)N(C)C(C)(C)C3)n2)cc1OC(F)(F)F` [Compound I-343], for which the negative-log IC50 (pIC50) (24 hours) is 6.50.
Compound `COc1cc(Nc2ncc(F)c(N(Cc3ccc(-c4ccccc4)cc3)C3CC(C)(C)N(C)C(C)(C)C3)n2)cc(OC)c1` [Compound I-317] had a pIC50 (Homo sapiens, T-cell, 24 h) of 5.62.
For `CC(=O)N1C(C)(C)CC(Nc2nc(Nc3ccc(N4CCN(C)CC4)c(C(F)(F)F)c3)ncc2F)CC1(C)C` [Compound I-219], the negative logarithm of the IC50 (pIC50) (24 hours) is 4.68.
For the setting “24 hours”, `CN1CCN(c2ccc(Nc3ncc(Cl)c(NC4CC(C)(C)N(C)C(C)(C)C4)n3)cc2Cl)CC1` [Compound I-36] had a pIC50 of 7.08.
For the setting “24 hours”, `CN1C(C)(C)CC(Nc2nc(Nc3cccc(C#N)c3)ncc2C(N)=O)CC1(C)C` [Compound I-86] had a negative logarithm of the IC50 (pIC50) of 5.30.
In the case of `Cc1ccc(C)n1-c1cc(Nc2ncc(F)c(NC3CC(C)(C)NC(C)(C)C3)n2)ccc1OCCN1CCCC1` [Compound I-442], the pIC50 (Homo sapiens, T-cell, 24 h) is 5.75.
`CC1(C)CC(Nc2nc(Nc3cccc(-n4cnnn4)c3)ncc2F)CC(C)(C)N1` [Compound I-391] gave a pIC50 (24 hours) of 6.66.
As to `CN1C(C)(C)CC(Nc2nc(Nc3ccc4c(c3)OCO4)ncc2F)CC1(C)C` [II-32], the pIC50 (24 hours) is 6.06.
In the case of `CN1C(C)(C)CC(Nc2nc(Nc3ccc(F)c(-n4cnnn4)c3)ncc2C(N)=O)CC1(C)C` [Compound I-468], for the setting “24 hours”, the negative logarithm of the IC50 (pIC50) is 5.57.
For the setting “24 hours”, `COc1cc(Nc2ncc(C(N)=O)c(NC3CC(C)(C)NC(C)(C)C3)n2)cc(-n2cnnn2)c1` [Compound I-389] gave a pIC50 of 5.27.
With `CN1CCN(Cc2ccc(Nc3ncc(F)c(NC4CC(C)(C)N(C)C(C)(C)C4)n3)cc2Cl)CC1` [Compound I-57], for the setting “24 hours”, the negative logarithm of the IC50 (pIC50) is 6.44.
Same read-out and setting: for `CN1C(C)(C)CC(Nc2nc(Nc3cnc(N4CCOCC4)c(C(F)(F)F)c3)ncc2F)CC1(C)C` [Compound I-271] the value was 6.17.
With `Cc1ccc(Nc2ncc(F)c(N(Cc3ccc4ccccc4c3)C3CC(C)(C)N(C)C(C)(C)C3)n2)cc1C#N` [Compound I-315], where the note is “Homo sapiens, T-cell, 24 h”, the negative logarithm of the IC50 (pIC50) was 5.47.
Compound `CN1C(C)(C)CC(Nc2nc(Nc3ccc(N4CCOCC4)c(Cl)c3)ncc2F)CC1(C)C` [Compound I-335] gave a negative logarithm of the IC50 (pIC50) (24 hours) of 6.25.
As for `CN1C(C)(C)CC(Nc2nc(Nc3ccc(N4CCN(S(C)(=O)=O)CC4)c(C(F)(F)F)c3)ncc2C(N)=O)CC1(C)C` [Compound I-90], the negative-log IC50 (pIC50) (24 hours) was 5.54.
Compound `CN1CCN(c2ccc(Nc3ncc(F)c(NC4CC(C)(C)N(C)C(C)(C)C4)n3)cc2C(N)=O)CC1` [Compound I-53] gave a pIC50 (24 hours) of 5.71.
On the same count and under the same terms, for `COc1ccc(Nc2ncc(Br)c(NC3CC(C)(C)N(C)C(C)(C)C3)n2)cc1C(F)(F)F` [Compound I-272] the value was 6.08; for `CN1C(C)(C)CC(Nc2nc(Nc3ccc(Oc4ncccn4)c(Cl)c3)ncc2F)CC1(C)C` [Compound I-338], 6.44; for `CN1C(C)(C)CC(Nc2nc(Nc3ccc4c(c3)OCCO4)ncc2C#N)CC1(C)C` [II-60], 6.14.
As to `CN1C(C)(C)CC(Nc2nc(Nc3ccc(Cl)c(C#N)c3)ncc2C(F)(F)F)CC1(C)C` [Compound I-169], the pIC50 (24 hours) was 6.17.
Compound `COc1ccc(Nc2ncc(C)c(NC3CC(C)(C)N(C)C(C)(C)C3)n2)cc1Cl` [Compound I-27] gave a pIC50 (24 hours) of 6.30.
For `COc1ccc(-c2csc(Nc3ncc(F)c(NC4CC(C)(C)N(C)C(C)(C)C4)n3)n2)cc1OC` [II-138], the pIC50 (Homo sapiens, T-cell, 24 h) was 6.15.
The compound `CCN1C(=O)C(C)(C)Oc2cc(Nc3ncc(C#C[Si](C)(C)C)c(NC4CC(C)(C)N(C)C(C)(C)C4)n3)ccc21` [II-151] showed a pIC50 (T-cell, 24 hours) of 5.90.
Compound `CCN(CC)C1CCC(Nc2nc(Nc3ccc(N4CCN(S(C)(=O)=O)CC4)c(Cl)c3)ncc2F)CC1` (centres unmarked) [IV-4, N2-[3-Chloro-4-(4-methylsulfonylpiperazino)]phenyl-N4-(4-diethylamino)cyclohexyl-5-fluoro-2,4-pyrimidinediamine] showed a pIC50 (Homo sapiens, T-cell, 24 h) of 5.15.
Where the note is “Homo sapiens, T-cell, 24 h”, `CN1CCN(c2ccc(Nc3ncc(F)c(N(Cc4ccccc4)C4CC(C)(C)N(C)C(C)(C)C4)n3)cc2C(F)(F)F)CC1` [Compound I-311] gave a negative logarithm of the IC50 (pIC50) of 6.09.
Consider `COc1cc(F)cc(Nc2ncc(F)c(NC3CC(C)(C)N(C)C(C)(C)C3)n2)c1` [Compound I-443], for which the negative-log IC50 (pIC50) (24 hours) was 6.40.
`CC1(C)CC(Nc2nc(Nc3ccc4c(c3)oc(=O)n4CCN3CCOCC3)ncc2F)CC(C)(C)N1` [II-168] gave a pIC50 (Homo sapiens, T-cell, 24 h) of 5.25.
`COc1cc(Nc2ncc(F)c(NC3CC(C)(C)N(C)C(C)(C)C3)n2)cc(OC)c1OC` [Compound I-19]: the pIC50 (24 hours) is 5.91.
In turn, `CN1C(C)(C)CC(Nc2nc(Nc3ccc(-n4nnnc4-c4ccco4)cc3)ncc2F)CC1(C)C` [Compound I-458] gave a pIC50 (24 hours) of 6.10.
`COC(=O)C(C)N1C(C)(C)CC(Nc2nc(Nc3ccc(C)c(C#N)c3)ncc2F)CC1(C)C` (centres unmarked) [Compound I-296]: the pIC50 (Homo sapiens, T-cell, 24 h) was 5.98.
Turning to `CN1C(C)(C)CC(Nc2nc(Nc3ccc(OC(F)(F)F)c(-c4ccncc4)c3)ncc2F)CC1(C)C` [Compound I-207], where the note is “24 hours”, the pIC50 is 6.40.
Take `Cc1cnc(Nc2cccc(S(N)(=O)=O)c2)nc1NC1CC(C)(C)N(C)C(C)(C)C1` [Compound I-14]: under “24 hours”, the pIC50 was 5.01.
In turn, `CNC(=O)COc1cccc(Nc2ncc(F)c(NC3CC(C)(C)N(C)C(C)(C)C3)n2)c1` [Compound I-136] had a pIC50 (24 hours) of 5.81.
Compound `CN(c1nc(Nc2cccc(C#N)c2)ncc1F)C1CC(C)(C)N(C)C(C)(C)C1` [Compound I-66] showed a pIC50 (24 hours) of 5.84.
On the same count and under the same terms, to `CN1C(C)(C)CC(Nc2nc(Nc3ccc(F)c(C#N)c3)ncc2C(F)(F)F)CC1(C)C` [Compound I-170] belongs 5.58.
As for `Cc1nnnn1-c1ccc(Nc2ncc(F)c(NC3CC(C)(C)N(C)C(C)(C)C3)n2)cc1` [Compound I-454], the pIC50 (24 hours) was 5.20.
`COc1cc(Nc2ncc(F)c(N(Cc3ccc4ccccc4n3)C3CC(C)(C)N(C)C(C)(C)C3)n2)cc(OC)c1` [Compound I-322] gave a pIC50 (Homo sapiens, T-cell, 24 h) of 5.24.
In the case of `COc1ccc(Nc2ncc(F)c(NC3CC(C)(C)N(C)C3(C)C)n2)cc1C(F)(F)F` (centres unmarked) [Compound I-283, 5-Fluoro-N2-(4-methoxy-3-trifluoromethyl)phenyl-N4-(1,2,2,5,5-pentamethylpyrrolidin-3-yl)-2,4-pyrimidinediamine], the negative logarithm of the IC50 (pIC50) (24 hours) is 5.57.
In the case of `CN1C(C)(C)CC(Nc2nc(Nc3nc4cc(Cl)ccc4o3)ncc2F)CC1(C)C` [II-12], the pIC50 (Homo sapiens, T-cell, 24 h) is 5.39.
In turn, `COc1ccc(Nc2ncc(F)c(NC3CCC(C)(C)N(C)C(C)(C)C3)n2)cc1C(F)(F)F` (centres unmarked) [Compound I-268, 5-Fluoro-N2-[4-methoxy-3-trifluoromethyl]phenyl-N4-(1,2,2,7,7-pentamethylazepan-4-yl)-2,4-pyrimidinediamine] had a negative-log IC50 (pIC50) (24 hours) of 4.50.
`CN1C(C)(C)CCC(Nc2nc(Nc3ccc(N4CCOCC4)c(C(F)(F)F)c3)ncc2F)CC1(C)C` (centres unmarked) [Compound I-261, 5-Fluoro-N2-[4-morpholine-3-trifluoromethyl]phenyl-N4-(1,2,2,7,7-pentamethylazepan-4-yl)-2,4-pyrimidinediamine] had a pIC50 (24 hours) of 5.33.
The compound `Cc1cnc(Nc2ccc3c(c2)OCCO3)nc1NC1CC(C)(C)N(C)C(C)(C)C1` [II-146] showed a negative-log IC50 (pIC50) (Homo sapiens, T-cell, 24 h) of 5.50.
Turning to `CC(C)OC(=O)Nc1cccc(Nc2ncc(F)c(NC3CC(C)(C)N(C)C(C)(C)C3)n2)c1` [Compound I-139], for the setting “24 hours”, the pIC50 was 5.80.
The compound `COC(=O)N1CCN(c2cc(Nc3ncc(F)c(NC4CC(C)(C)N(C)C(C)(C)C4)n3)ccc2C(F)(F)F)CC1` [Compound I-214] showed a negative-log IC50 (pIC50) (24 hours) of 6.27.
In turn, `COc1cc(Nc2ncc(C)c(NC3CC(C)(C)N(C)C(C)(C)C3)n2)cc(OC)c1OC` [Compound I-16] showed a pIC50 (24 hours) of 5.28.
The compound `CC1(C)CC(Nc2nc(Nc3cc(Cl)cc(Cl)c3)ncc2F)CC(C)(C)N1CCN` [Compound I-447] gave a pIC50 (24 hours) of 6.04.
For the compound `CCOC(=O)c1cnc(Nc2ccc(N3CCN(S(C)(=O)=O)CC3)c(Cl)c2)nc1NC1CC(C)(C)N(C)C(C)(C)C1` [Compound I-84], the pIC50 (24 hours) is 5.16.
The compound `CSc1nnnn1-c1cccc(Nc2ncc(C(N)=O)c(NC3CC(C)(C)NC(C)(C)C3)n2)c1` [Compound I-457] had a pIC50 (24 hours) of 5.78.
Regarding `COc1ccc(Nc2ncc(F)c(NC3CC(C)(C)N(CCC(=O)O)C(C)(C)C3)n2)cc1Cl` [Compound I-303], for the setting “Homo sapiens, T-cell, 24 h”, the pIC50 is 4.75.
As for `COC(=O)CCN1C(C)(C)CC(Nc2nc(Nc3ccc(OC)c(OC)c3)ncc2F)CC1(C)C` [Compound I-291], the pIC50 (Homo sapiens, T-cell, 24 h) is 4.65.
In the case of `COCCOc1cc(Nc2ncc(F)c(NC3CC(C)(C)NC(C)(C)C3)n2)cc(OCCOC)c1` [Compound I-394], the pIC50 (24 hours) was 5.53.
For the setting “Homo sapiens, T-cell, 24 h”, `CCn1c(=O)oc2ccc(Nc3ncc(F)c(NC4CC(C)(C)N(C)C(C)(C)C4)n3)cc21` [II-173] gave a pIC50 of 5.88.
`Cc1ccc(C)n1-c1cc(Nc2ncc(F)c(NC3CC(C)(C)NC(C)(C)C3)n2)ccc1OCCN1CCOCC1` [Compound I-441] had a negative logarithm of the IC50 (pIC50) (Homo sapiens, T-cell, 24 h) of 5.77.
Turning to `Cc1ccc(Nc2ncc(F)c(NC3CC(C)(C)N(C)C(C)(C)C3)n2)cc1-n1cnnn1` [Compound I-398], the negative-log IC50 (pIC50) (24 hours) is 7.30.
Still for that read-out and setting: to `CN1C(C)(C)CC(Nc2nc(Nc3ccc(N4CCCC4)c(OC(F)F)c3)ncc2F)CC1(C)C` [Compound I-237] belongs 6.05.
